From patent US20170050966A1, “INHIBITING THE TRANSIENT RECEPTOR POTENTIAL A1 ION CHANNEL” (HYDRA BIOSCIENCES, INC., priority 2014, published 2017) come the findings set out here.

For one data set, the target named is CYP2B6 (Homo sapiens, UniProt P20813). The data set is described as follows: in vitro. To be noted: probe Buproprion.
A further data set in a line: in vitro. To be noted: plasma. The method, then:
With this method, free compound is separated from protein-bound compound by dialysis across a semi-permeable membrane.
The protein binding was tested at a concentration of 1 μM. Pooled human, cynomolgus monkey, dog, and rat K2EDTA plasma was thawed and centrifuged at 2000×g for 10 minutes at 4° C. to remove particulates; any lipid on the top of the supernatant was also removed by aspiration. The plasma was warmed to 37° C. for 10 minutes before use. Test compounds were spiked into 2 ml plasma in a polypropylene plate to a final concentration of 1 μM. Triplicate 400 μl aliquots of spiked plasma were transferred into the Thermo RED dialysis units and dialyzed against 600 μl of PBS buffer. […] After 6 hours dialysis, triplicate 50 μl aliquots were removed from the RED plate, matrix-matched with either PBS buffer or blank plasma, as appropriate, and quenched with 4 volumes of ACN containing an internal standard. The extracted samples were then centrifuged at 2000×g for 5 minutes at 4° C. The supernatant (50 μl) was removed and diluted with 100 μl water prior to LC/MS/MS bioanalysis.

The target in the next data set is CYP2C8 (Homo sapiens, UniProt P10632). Briefly: in vitro. The conditions noted are these: probe Amodiaquine.
CYP2C8, sequence (P10632 whole entry): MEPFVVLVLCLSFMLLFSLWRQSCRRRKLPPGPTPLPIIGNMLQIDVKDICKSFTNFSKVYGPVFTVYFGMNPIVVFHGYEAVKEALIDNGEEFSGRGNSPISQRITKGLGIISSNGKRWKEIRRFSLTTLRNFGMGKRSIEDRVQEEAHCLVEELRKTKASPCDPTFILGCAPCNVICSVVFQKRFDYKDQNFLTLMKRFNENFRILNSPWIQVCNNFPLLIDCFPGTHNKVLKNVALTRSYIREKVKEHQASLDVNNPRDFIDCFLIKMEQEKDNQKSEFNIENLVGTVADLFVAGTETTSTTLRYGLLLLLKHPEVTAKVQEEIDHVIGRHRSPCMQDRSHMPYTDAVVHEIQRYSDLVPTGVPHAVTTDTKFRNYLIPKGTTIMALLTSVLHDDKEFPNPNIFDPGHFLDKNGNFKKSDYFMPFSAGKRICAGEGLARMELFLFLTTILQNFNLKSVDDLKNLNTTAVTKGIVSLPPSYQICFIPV
A further data set concerns the target CYP2D6 (Homo sapiens, UniProt P10635). Briefly: in vitro.
The nature of data set [1]: Kinetic solubility in buffered solutions. The class given is physicochemical. To be noted: aqueous buffer, kinetic from dmso stock, 24 hours ambient. The procedure: The solubilities of the compounds of Formula (I) were tested using the procedure outlined in Kerns, E. H., J Pharm Sci (2001) 90:1838-1858, incorporated herein by reference and described below. Data for solubility was obtained by this method for compounds of Formula (I) and included in Table 3. The chromatographic data was performed by HPLC using an Xbridge Shield RP18 column with the following column dimensions: 4.6×30 mm, 3.5 μm. The mobile phase consisted of deionized water (MPA) with trifluoroacetic acid added in at 0.1% (v/v) (MPC) and HPLC-grade acetonitrile (MPB). The mobile phase flow rate was 2.5 mL/min with the column and sampling operating at ambient temperature. UV detection was set to 280 nm.
Samples for analysis of the compounds of Formula (I) were prepared at a % v/v=1/19 (i.e., 10 μL of the stock solution into 190 μL of buffer) by spiking stock solutions of the compounds of Formula (I) into buffered solutions. Three buffered solution systems were prepared: pH 4.0 prepared from 50 mM sodium acetate in a 5% dextrose in water solution, pH 7.4 prepared from 75 mM sodium phosphate in a 1:1 ratio of sterilized water for injection to a 5% dextrose in water solution, and pH 9.0 prepared from 50 mM sodium bicarbonate in a 1:2 ratio of sterilized water for injection to a 5% dextrose in water solution. The samples were incubated on a microplate shaker at 300 rpm for 24 hours at ambient temperature. Following incubation, the samples were centrifuged for five minutes at 13 k rpm at ambient temperature. The resulting supernantant was extracted for HPLC analysis.

Data set [2] can be described thus: Oral bioavailability of solutions in non-fasted rats. To be noted: rat, in vivo, oral solution, read-out: Rat % F. The method, then: Early bioavailability studies in rat were conducted with solutions of the compounds of the invention. Compounds were delivered via oral administration as a solution in an appropriate excipient. Example formulations include, but are not limited to: 4% DMSO, 10% Solutol HS-15, and 86% water or 4% DMSO, 5% Tween, 25% Cremophor EL. Target concentrations were typically 1 mg/mL, and administered via oral gavage to non-fasted rats. The absolute bioavailability is the dose-corrected area under the curve (AUC) non-intravenous divided by the dose corrected AUC intravenous. The formula for calculating F for a drug administered by the oral route (PO) is given below:
% F=AUC PO×Dose IV/AUC IV×Dose PO

Data set [3] is described as follows: Metabolic stability in liver microsomes. In kind it is in vitro ADME. The procedure: (§1) Metabolic stability of the compounds of Formula (I) was determined by standard liver microsome assays. Briefly, metabolic stability was tested by adding the compound to be tested dissolved in DMSO to human, dog, or rat liver microsomes. Assays were run with a starting concentration of 1 μM test compound. The reaction was initiated by addition of nicotinamide adenine dinucleotide phosphate[…] (NADPH) regeneration components at 37° C., at which time an aliquot was immediately quenched in an ice-cold acetonitrile/methanol/water solution. Reaction mixture was incubated at 37° C. on a shaker, and additional aliquots were taken at 7, 15, 30 and 60 minutes. Following quench and centrifugation, samples were analyzed on HPLC/MS/MS.
(Liver microsomes are a subcellular fraction often used to study metabolism.)

Data set [4] in a line: Metabolic stability in liver microsomes. The class given is in vitro ADME, human. To be noted: 1 μM test compound. The method, then:
as §1

The nature of data set [5]: Solubility in Normal Ringer Solution. In kind it is physicochemical. To be noted: aqueous buffer, kinetic from dmso stock, pH 7.4, room temperature. The procedure: Compounds of the invention were also tested for solubility in Normal Ringer Solution. […] Following vortex and incubation for 40 minutes at room temperature, solutions were filtered, quenched with acetonitrile, and analyzed by liquid chromatography. Solubility limits were determined by comparison to a standard curve. […] Solubility is reported as “greater than” if the observed increase between the last 2 dilutions tested is greater than 2-fold.

The target in a further data set is T1, human TRPA1 (hTRPA1) (Homo sapiens, UniProt O75762).
T1 construct: expressed in transfected cells
T1 sequence (O75762 whole entry): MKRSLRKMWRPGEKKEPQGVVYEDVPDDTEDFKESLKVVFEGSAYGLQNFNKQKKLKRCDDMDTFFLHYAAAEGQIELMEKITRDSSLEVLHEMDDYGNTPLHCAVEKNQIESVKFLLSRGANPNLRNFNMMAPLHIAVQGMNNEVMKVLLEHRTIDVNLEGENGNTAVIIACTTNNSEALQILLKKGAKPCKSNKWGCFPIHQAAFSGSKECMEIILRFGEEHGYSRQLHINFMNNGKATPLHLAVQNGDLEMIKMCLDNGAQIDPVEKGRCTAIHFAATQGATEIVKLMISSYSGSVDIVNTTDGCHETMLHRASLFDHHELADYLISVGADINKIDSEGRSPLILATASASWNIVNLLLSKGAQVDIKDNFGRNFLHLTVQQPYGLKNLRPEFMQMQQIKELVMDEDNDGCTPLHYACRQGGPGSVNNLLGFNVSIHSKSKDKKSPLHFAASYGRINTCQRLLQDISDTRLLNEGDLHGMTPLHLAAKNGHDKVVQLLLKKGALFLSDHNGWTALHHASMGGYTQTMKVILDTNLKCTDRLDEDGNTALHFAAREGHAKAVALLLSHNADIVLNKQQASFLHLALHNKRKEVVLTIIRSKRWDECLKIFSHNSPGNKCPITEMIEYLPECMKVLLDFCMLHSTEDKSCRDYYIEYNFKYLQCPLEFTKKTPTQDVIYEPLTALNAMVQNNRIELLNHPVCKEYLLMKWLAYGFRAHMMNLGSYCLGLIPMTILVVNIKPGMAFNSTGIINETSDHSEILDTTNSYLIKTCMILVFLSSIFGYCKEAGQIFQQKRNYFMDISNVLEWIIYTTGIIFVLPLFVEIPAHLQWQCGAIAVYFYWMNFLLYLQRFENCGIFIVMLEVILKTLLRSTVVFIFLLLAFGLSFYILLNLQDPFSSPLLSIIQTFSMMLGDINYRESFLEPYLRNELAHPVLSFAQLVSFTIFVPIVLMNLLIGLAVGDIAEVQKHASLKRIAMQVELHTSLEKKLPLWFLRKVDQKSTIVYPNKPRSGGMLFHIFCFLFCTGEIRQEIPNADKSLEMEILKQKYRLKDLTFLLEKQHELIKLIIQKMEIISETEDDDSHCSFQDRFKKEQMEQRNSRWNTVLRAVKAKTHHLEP
Briefly: Inhibition of human TRPA1, whole-cell patch clamp. The class given is cell-based. To be noted: antagonist effect, whole cell patch configuration; read-out: hTRPA1. The procedure:
Data for TRPA1 inhibition was obtained by this method for the indicated compounds of Formula (I), with the relevant data included in Table 14 below. All currents were recorded in whole-cell configuration using EPC-9 and EPC-10 amplifiers and Patchmaster software (HEKA). […] The standard pipette solution consisted of 140 mM CsAsp, 10 mM EGTA, 10 mM HEPES, […], 1.91 mM CaCl2, and up to 0.3 mM Na2GTP, with pH adjusted to 7.2 with CsOH. In addition, a solution containing 145 mM CsCl, 10 mM HEPES, 10 mM EGTA, and up to 0.3 mM Na2GTP and 1 mM MgCl2 (pH 7.2 adjusted with CsOH) can be used. The standard bath solution contained 150 mM NaCl, 10 mM HEPES, 10 mM glucose, 4.5 mM KCl, 1 mM EGTA, 3 mM MgCl2, with pH adjusted to 7.4 with NaOH. In some instances, 2 mM CaCl2 was added in place of EGTA and the concentration of MgCl2 was reduced to 1 mM.
Data were collected either by continuous recordings at −60 mV or by applying voltage ramps from a holding potential of 0 mV every 4 s. Continuous recordings were collected at 400 Hz and digitally filtered off-line at 10 Hz for presentation. Voltage ramps were applied from −100 mV to 100 mV over the course of 400 ms, and data were collected at 10 kHz and filtered at […]. Inward and outward currents were analyzed from the ramps at −80 and 80 mV, respectively. Liquid junction potential correction was not used.
Solutions were switched using a gravity-fed continuous focal perfusion system. To achieve rapid temperature changes, two temperature control, and perfusion systems were employed simultaneously. For temperatures greater than or equal to 22° C., a Warner Instruments bipolar temperature controller (TC-344B) and inline heater (SHM-8) were used. […] Temperatures were confirmed using a thermistor (Warner Instruments, TA-29), with temperatures at the recorded cell estimated to be within +/−2° C. of those reported.
The antagonist effects of compounds of Formula (I) against human TRPA1 (“hTRPA1”) in a whole cell patch configuration were evaluated using the in vitro assay protocol described above.
A general note: Patch clamp records ionic current or voltage across a cell membrane.

The target of a further data set is CYP2C19 (Homo sapiens, UniProt P33261). The data set is described as follows: in vitro. The conditions noted are these: probe Mephenytoin.
CYP2C19, sequence (P33261 whole entry): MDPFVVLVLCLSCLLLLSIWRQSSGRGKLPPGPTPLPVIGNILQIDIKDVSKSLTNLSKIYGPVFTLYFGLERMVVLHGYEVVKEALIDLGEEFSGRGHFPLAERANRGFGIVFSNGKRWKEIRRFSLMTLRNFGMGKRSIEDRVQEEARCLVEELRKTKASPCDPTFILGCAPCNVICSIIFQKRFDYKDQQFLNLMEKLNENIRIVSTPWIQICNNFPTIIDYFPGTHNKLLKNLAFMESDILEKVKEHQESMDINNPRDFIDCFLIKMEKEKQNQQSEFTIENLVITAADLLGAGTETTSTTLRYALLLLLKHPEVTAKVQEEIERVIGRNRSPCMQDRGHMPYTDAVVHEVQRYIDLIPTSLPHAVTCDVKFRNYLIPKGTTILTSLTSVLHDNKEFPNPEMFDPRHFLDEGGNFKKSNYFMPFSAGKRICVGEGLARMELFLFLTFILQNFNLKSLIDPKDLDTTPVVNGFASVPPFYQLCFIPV
The target in the next data set is CYP2C9 (Homo sapiens, UniProt P11712). Briefly: in vitro.
CYP2C9, sequence (P11712 whole entry): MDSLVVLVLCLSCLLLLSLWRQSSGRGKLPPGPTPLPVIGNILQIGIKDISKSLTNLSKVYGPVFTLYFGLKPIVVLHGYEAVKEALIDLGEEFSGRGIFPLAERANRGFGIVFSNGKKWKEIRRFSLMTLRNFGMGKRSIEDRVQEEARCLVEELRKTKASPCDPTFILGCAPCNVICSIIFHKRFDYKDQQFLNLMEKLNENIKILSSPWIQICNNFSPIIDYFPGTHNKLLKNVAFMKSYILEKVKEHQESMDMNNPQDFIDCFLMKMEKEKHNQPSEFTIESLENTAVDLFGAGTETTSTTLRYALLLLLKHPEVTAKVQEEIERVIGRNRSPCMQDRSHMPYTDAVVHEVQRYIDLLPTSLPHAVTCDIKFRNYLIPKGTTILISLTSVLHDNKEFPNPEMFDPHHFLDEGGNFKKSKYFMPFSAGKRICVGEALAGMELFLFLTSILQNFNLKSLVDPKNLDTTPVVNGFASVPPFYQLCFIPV
The next data set deals with T2, CYP1A2 (Homo sapiens, UniProt P05177).
T2 sequence (P05177 1-516): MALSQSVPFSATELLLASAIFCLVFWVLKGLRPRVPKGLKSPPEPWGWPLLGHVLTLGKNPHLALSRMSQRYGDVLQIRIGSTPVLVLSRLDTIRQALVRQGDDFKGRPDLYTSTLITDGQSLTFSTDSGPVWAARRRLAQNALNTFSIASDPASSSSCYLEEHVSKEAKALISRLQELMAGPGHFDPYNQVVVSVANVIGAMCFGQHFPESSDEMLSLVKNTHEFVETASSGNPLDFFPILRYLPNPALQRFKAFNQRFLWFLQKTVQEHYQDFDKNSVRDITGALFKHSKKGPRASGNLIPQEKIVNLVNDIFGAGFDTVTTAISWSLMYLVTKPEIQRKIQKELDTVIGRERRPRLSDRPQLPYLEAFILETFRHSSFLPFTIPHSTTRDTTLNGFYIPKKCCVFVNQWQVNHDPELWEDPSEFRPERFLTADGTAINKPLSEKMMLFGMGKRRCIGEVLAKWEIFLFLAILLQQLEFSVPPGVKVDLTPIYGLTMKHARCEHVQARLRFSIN
The data set is described as follows: CYP450 inhibition at 10 μM. In kind it is biochemical. The conditions noted are these: 1A2, substrate Phenacetin.

Converted amounts (≈) assume the structure as drawn. Where two headings read alike, the source gives them in different places. Some results are limits rather than exact numbers.

CYP2B6, sequence (P20813 whole entry): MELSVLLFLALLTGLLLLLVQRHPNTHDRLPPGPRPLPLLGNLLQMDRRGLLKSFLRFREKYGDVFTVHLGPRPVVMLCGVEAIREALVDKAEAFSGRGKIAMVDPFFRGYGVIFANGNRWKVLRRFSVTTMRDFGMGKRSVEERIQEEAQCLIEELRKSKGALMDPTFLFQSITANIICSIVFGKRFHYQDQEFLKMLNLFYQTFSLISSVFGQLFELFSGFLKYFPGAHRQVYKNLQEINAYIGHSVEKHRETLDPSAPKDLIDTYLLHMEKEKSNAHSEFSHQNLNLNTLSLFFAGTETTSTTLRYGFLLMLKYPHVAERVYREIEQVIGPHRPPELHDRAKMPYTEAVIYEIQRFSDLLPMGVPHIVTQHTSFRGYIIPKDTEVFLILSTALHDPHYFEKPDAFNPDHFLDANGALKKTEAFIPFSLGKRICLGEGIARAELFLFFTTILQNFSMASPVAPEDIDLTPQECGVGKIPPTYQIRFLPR
CYP2D6, sequence (P10635 whole entry): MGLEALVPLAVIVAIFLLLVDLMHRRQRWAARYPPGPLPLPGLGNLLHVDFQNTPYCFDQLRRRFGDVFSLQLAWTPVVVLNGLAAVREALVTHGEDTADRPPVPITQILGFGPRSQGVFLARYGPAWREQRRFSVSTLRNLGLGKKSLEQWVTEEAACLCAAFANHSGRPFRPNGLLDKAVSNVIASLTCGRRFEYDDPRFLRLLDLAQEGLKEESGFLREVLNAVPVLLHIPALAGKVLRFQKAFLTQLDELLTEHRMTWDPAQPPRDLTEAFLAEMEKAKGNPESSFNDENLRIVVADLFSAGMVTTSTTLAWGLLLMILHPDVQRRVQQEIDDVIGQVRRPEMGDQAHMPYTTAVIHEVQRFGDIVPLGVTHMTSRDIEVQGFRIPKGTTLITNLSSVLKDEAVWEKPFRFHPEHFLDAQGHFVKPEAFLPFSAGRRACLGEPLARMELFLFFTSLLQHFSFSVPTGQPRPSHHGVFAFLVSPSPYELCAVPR

For orientation: inhibition means the change of the read-out against control, counted positive when it falls. A high value points to a strong effect. As for `Clc1ccccc1CN1CCc2sccc2C1` [Ticlopidine, reference compound], at 10 µM the inhibition at CYP2B6 was 98.2%.
Broadly, the fraction unbound is the share of the substance not bound to proteins or other matrix. With `CC(=O)CC(c1ccccc1)c1c(O)c2ccccc2oc1=O` (stereo not drawn) [Warfarin, reference compound], the fraction unbound at 6 h, 1 μM in the data set “in vitro” (beagle, dog) is 0.065; in “in vitro” (cynomolgus monkey) it was 0.011.
`O=c1c(O)c(-c2ccc(O)c(O)c2)oc2cc(O)cc(O)c12` [Quercetin, reference compound] displayed an inhibition at 10 µM on CYP2C8 of 61.5%.
`C=C[C@H]1C[N@@]2CC[C@H]1C[C@@H]2[C@@H](O)c1ccnc2ccc(OC)cc12` [Quinidine, reference compound] displayed an inhibition at 1 μM on CYP2D6 of 55.8%.
Broadly, the half-life is how long it takes for the measured level to halve. What is called solubility is the concentration that dissolves in the medium under given conditions. The low end stands for little dissolved substance, the high end for much dissolved substance. `C[C@H]1CCCN1c1ncc(-c2nccc(NC(=O)Cn3cnc4c3c(=O)n(C)c(=O)n4C)n2)cn1` [Compound 19, (S)-2-(1,3-dimethyl-2,6-dioxo-2,3-dihydro-1H-purin-7(6H)-yl)-N-(2′-(2-methylpyrrolidin-1-yl)-2,5′-bipyrimidin-4-yl)acetamide]: the solubility kinetic at 24 h in data set [1] (sodium acetate buffer, pH 4.0, 50 mM sodium acetate, read-out: pH 4.0 solubility) worked out at 6 µg/mL (≈ 12.6 µM); in [1] (sodium bicarbonate buffer, pH 9.0, 50 mM sodium bicarbonate, read-out: pH 9.0 solubility) it was 3.5 µg/mL (≈ 7.35 µM); in data set [1] (sodium phosphate buffer, pH 7.4, 75 mM sodium phosphate, read-out: pH 7.4 solubility), 10 µg/mL (≈ 21 µM). The bioavailability in data set [2] was 77%. For the same compound, in data set [3] (dog liver microsomes), the “Hepatic Clearance” value was 11 mL/min/kg. The half-life at 1 μM in [3] (dog liver microsomes, both sexes, read-out: Half-Life both sexes) was 44 min; in [3] (rat liver microsomes, both sexes, read-out: Half-Life Both sexes), 63.8 min; in data set [3] (rat liver microsomes, male, read-out: Male Half-Life), 36 min; in data set [4] (human, liver microsomes, 37° C.) it was 50 min. Also, the “Male Hepatic Clearance” value in data set [3] (rat liver microsomes, male) is reported as 25 mL/min/kg. The “Human Liver Microsomes Hepatic Clearance” value in [4] is listed as 9 mL/min/kg. In [5], this compound displayed a solubility at 40 min above 18.2 µM. Moreover, the IC50 on human TRPA1 (hTRPA1) came out at 96.1 nM.
Consider `COc1ccc2[nH]c([S+]([O-])Cc3ncc(C)c(OC)c3C)nc2c1` (stereo not drawn) [Omeprazole, reference compound], for which, on CYP2C19, the inhibition at 10 µM was 68.2%.
Regarding `Nc1ccc(S(=O)(=O)Nc2ccnn2-c2ccccc2)cc1` [Sulfaphenazole, reference compound], at CYP2C9, 10 µM produced 95.3% inhibition.
In turn, `COCCCC/C(=N\OCCN)c1ccc(C(F)(F)F)cc1` [Fluvoxamine, reference compound] displayed an inhibition at 10 µM at CYP1A2 of 96.6%.
